The target in data set [1] is Norepinephrine Transporter (Human Recombinant) (Homo sapiens (Human), UniProt P23975). The experiment in a line: Norepinephrine transporter (human recombinant) binding assay, [3H]-Nisoxetine. To be noted: read-out: INH at 10 μM NET. The protocol: II: Norepinephrine Transporter (Human Recombinant) Binding Assay • This assay was carried out in accordance with the procedure described by Raisman, R, et al. Eur. Jrnl. Pharmacol. 78: 345-351 (1982) with modifications. See also, Langer, S., et al., Eur. Jrnl. Pharmacol, 72: 423-4 (1981). Tissue Preparation • 1. hrNET (Receptor Biology; RBNET) is diluted in assay buffer to 2.5 microunits/ml, so that each tube receives 0.5 microunits, or 2 microunits/ml. • NOTE: 100 microassays, add 20 mis of buffer. Binding Reaction • 1. Each tube receives the following components: • 25 ul drug or vehicle • 25 ul [^3H]-Nisoxetine • 200 ul tissue suspension. • 2. Initiate binding reaction with the addition of tissue, and incubate at room temperature for 1 hour. • 3. Terminate binding reaction by rapid filtration of tube contents onto 0.1% PEI treated GF/C filters (TopCount). • 4. Rinse the assay tubes once with ice cold 50 mM NaCl, then rapidly rinse the filters with 6×1 ml/tube of the same wash buffer. • 5. Radioactivity trapped onto the filters is assessed using liquid scintillation spectrophotometer after soaking the filters for at least 1 hour in scintillation cocktail. Materials and Reagents • 1. The receptor source is human recombinant/CHO. • 2. [^3H]-Nisoxetine, diluted to a concentration of 10 nM in assay buffer, is used as the radioligand. Thus, the final ligand concentration is 1 nM. • 3. Non specific binding is defined as that remaining in the presence of 1×10^−6M desipramine (MW=302.8) (Make fresh: in bag with dessicating rocks 1, dissolves in water 1E-3). • 4. The reference compound for the assay is desipramine. Desimpramine is run at following final concentrations: • 1×10^−10, 2×10^−10, 5×10^−10, 1×10^−9, 2×10^−9, 5×10^−9, 1×10^−8, 2×10^−8, 5×10^−8, 1×10^−7, 2×10^−7, 5×10^−7M • 5. The positive control is any of the above run at the final concentrations of: • 1×10^−9, 5×10^−9, 2×10^−8 M. • 6. The Kd for the receptor is 3 nM. Buffers

The test system of the next data set is male Swiss Webster mice. The experiment in a line: Time-course (8 hr) mouse locomotor activity testing. The format is in vivo. To be noted: for Duration of suppression of spontaneous locomotor activity: FIGS. 6A and 6B; for ID50 (dose producing 1/2 maximal depressant activity): IP; for Planned comparisons against the vehicle group, horizontal activity counts in period of maximal depressant effect: ps<0.05. The protocol: A dose response study was conducted of locomotor depression induced by the compound of Example 3, according to NIDA's Medication Development Division (MDD) locomoter activity studies standard protocol. The study was conducted using 40 Digiscan locomotor activity testing chambers (40.5×40.5×30.5 cm) housed in sets of two, within sound attenuating chambers. A panel of infrared beams (16 beams) and corresponding photodetectors were located in the horizontal direction along the sides of each activity chamber. A 7.5 W incandescent light above each chamber provided dim illumination. Fans provided an 80 dB ambient noise level within the chamber. Separate groups of 8 non-habituated male Swiss Webster mice (Hsd:ND4, aged 2-3 months) were injected via the intraperitoneal (IP) route with either vehicle (2% methyl cellulose) or the compound of Example 3, above, (3, 10, 30 or 100 mg/kg) twenty minutes prior to locomotor activity testing. Just piro to placement in the apparatus, all mice received a saline injection IP. In all studies, horizontal activity (interruption of photocell beams) was measured for 1 hour within 10 minute periods. Testing was conducted with one mouse per activity chamber.
A time course/dose response study of the locomotor depression inducing effect of the compound of Example 3 was conducted, according to the same MDD locomotor activity studies time course protocol described immediately above, except that groups of 8 mice were injected with either vehicle (2% methylcellulose) or the compound of Example 3 (3, 10, 30 or 100 mg/kg), immediately prior to locomotor activity testing. Behavioral observations were recorded on each mouse at 30, 120 and 480 minutes following 100 mg/kg of the test compound. The vehicle used in this study was 2% methylcellulose.
A separate time course/dose response study of the locomotor depression inducing effect of the compound of Example 6 was also conducted, under the same conditions described above for testing of the compound of Example 3. Additional groups of 8 mice were injected with either vehicle (2% methylcellulose) or the test compound (3, 10, 30 or 100 mg/kg), immediately prior to locomotor activity testing. Behavioral observations were recorded on each mouse at 30, 120 and 480 minutes following 100 mg/kg of the test compound. The vehicle used in this study was 2% methylcellulose.
Depressant effects of 30 and 100 mg/kg occurred within 10 minutes following injection and lasted 140 to 160 minutes. The period 20-50 min was selected for analysis of dose-response data because this was the time period in which maximal suppression first appeared as a function of dose. The mean average horizontal activity counts/10 min for this 30-min period were fit to a linear function of log10 dose of the descending portion of the dose-effect curve (3 to 100 mg/kg dose range).
Depressant effects of 100 mg/kg occurred within 10 minutes following injection and lasted 160 minutes. The period 50-80 min was selected for analysis of dose-response data because this was the time period in which maximal suppression first appeared as a function of dose. The mean average horizontal activity counts/10 min for this 30-min period were fit to a linear function of log10 dose of the descending portion of the dose-effect curve (10 to 100 mg/kg dose range).

Data set [2] in a line: Plasma drug concentration by different routes of administration. The format is in vivo, C57BL/6 mice. To be noted: for Plasma Concentration: time 0 (pre-dose); for concentration at 5 min / concentration at 15 min / concentration at 30 min / concentration at 60 min / concentration at 120 min / concentration at 240 min / concentration at 480 min: C57BL/6, mouse, plasma. The protocol: The following materials and methods are provided to facilitate the practice of Example 9, in which drug concentration in certain biological samples were assessed using different routes of administration.
Parameters Used in Dosing and Drug Administration of the Compound of Example 3:
Adult C57BL/6 mice (preferred 16 weeks old).
Three mice per time point. If all three routes are conducted in same day, one group of pre-dose is efficient.
In the studies using adult C57BL/6 mice (preferably approximately 16 weeks old), dosing and drug administration parameters for the compound of Example 3 were explored. Clearly, the compound is suitable for oral administration and lasts in the plasma up to 2-3 hours.

Structures are written as SMILES.

On to `Cc1ccc(C[n+]2[cH-]/c(=N\C(=O)Nc3ccccc3)on2)cc1` [Example 3, N-phenylcarbamoyl-3-(p-methyl-benzyl)-sydnonimine], for which the inhibition at 10 µM in data set [1] worked out at 14%. Moreover, the “Onset of depressant effects following injection” value with male Swiss Webster mice (30 and 100 mg/kg IP) is ≤ 10 min. Moreover, in the data set on male Swiss Webster mice, the “Duration of suppression of spontaneous locomotor activity” value is given as “at least 3 hours”; the “Planned comparisons against the vehicle group, horizontal activity counts in period of maximal depressant effect” value is “significant depressant effect for 30 and 100 mg/kg”. Further, the “ID50 (dose producing 1/2 maximal depressant activity)” value in the data set on male Swiss Webster mice (period 20-50 min, 3 to 100 mg/kg dose range) is ~24.0 mg/kg. In data set [2] (10 mg/kg (IP)), the “Plasma Concentration” value was 21.00 ng/mL. In addition, in data set [2] (10 mg/kg (IV)), the “Plasma Concentration” value was 18.33 ng/mL, the concentration at 5 min is 2090 ng/mL, the concentration at 15 min was 2110 ng/mL and the concentration at 30 min was 915 ng/mL. For the same compound, in data set [2] (10 mg/kg (IV)), the concentration at 60 min stood at 417 ng/mL, the concentration at 120 min was determined as 139 ng/mL, the concentration at 240 min turned out to be 47.4 ng/mL and the concentration at 480 min came out at 94.6 ng/mL. In data set [2] (10 mg/kg (PO)), the “Plasma Concentration” value is given as 10.60 ng/mL, the concentration at 5 min stood at 218 ng/mL, the concentration at 15 min was determined as 115 ng/mL and the concentration at 30 min worked out at 59.9 ng/mL. Moreover, in data set [2] (10 mg/kg (PO)), the concentration at 60 min stood at 21.3 ng/mL, the concentration at 120 min is 17.6 ng/mL, the concentration at 240 min amounted to 15.8 ng/mL and the concentration at 480 min came to 14.3 ng/mL. Besides, in data set [2] (30 mg/kg (PO)), the “Plasma Concentration” value is 8.93 ng/mL, the concentration at 5 min was 838 ng/mL, the concentration at 15 min amounted to 670 ng/mL and the concentration at 30 min stood at 375 ng/mL. Besides, in data set [2] (30 mg/kg (PO)), the concentration at 60 min was determined as 114 ng/mL, the concentration at 120 min was 41.9 ng/mL, the concentration at 240 min was determined as 48.5 ng/mL and the concentration at 480 min came to 13.4 ng/mL. Besides, in data set [2] (intraperitoneal, 10 mg/kg (IP)), the concentration at 5 min was determined as 973 ng/mL, the concentration at 15 min is 316 ng/mL, the concentration at 30 min came out at 544 ng/mL and the concentration at 60 min was found to be 115 ng/mL. In data set [2] (intraperitoneal, 10 mg/kg (IP)), the concentration at 120 min was 82.5 ng/mL, the concentration at 240 min is 34 ng/mL and the concentration at 480 min amounted to 31.2 ng/mL. For the same compound, the “Time the compound lasts in the plasma” value in data set [2] (mouse, in vivo) lay in the range of 2 to 3 h.
Consider `O=C(/N=c1\[cH-][n+](CCCc2ccccc2)no1)Nc1ccccc1` [Example 6, N-phenylcarbamoyl-3-(phenylpropyl)-sydnonimine], for which the inhibition at 10 µM in data set [1] is 1.44%. In addition, in the data set with male Swiss Webster mice (100 mg/kg IP), the “Duration of depressant effects” value was 160 min and the “Onset of depressant effects following injection” value is ≤ 10 min. In addition, in the data set with male Swiss Webster mice, the “Duration of suppression of spontaneous locomotor activity” value is listed as “at least 3 hours” and the “Planned comparisons against the vehicle group, horizontal activity counts in period of maximal depressant effect” value is recorded as “significant depressant effect for 100 mg/kg”. In addition, the “ID50 (dose producing 1/2 maximal depressant activity)” value in the data set with male Swiss Webster mice (period 50-80 min, 10 to 100 mg/kg dose range) is reported as ~30.2 mg/kg. For the same compound, in data set [2] (oral, 10 and 30 mg/kg, FIG. 3), the “Oral bioavailability compared to Example 3” value is “relatively higher oral bioavailability”. The “Bioavailability in the plasma and brain compared to Example 3” value in data set [2] (same dosage, different routes, FIGS. 2A-2D) is “slightly better bioavailability”.
